Experiments:
Test in all cases: relative viability (nuclei count vs DMSO), 5 days (fraction); higher = more cells survive
[1] = compound: CC1=C(C=CC(=C1)[N+](=O)[O-])NS(=O)(=O)C2=C(C=CC(=C2)Cl)Cl [FH535] + COc1cc2c(Oc3ccc(NC(=O)C4(C(=O)Nc5ccc(F)cc5)CC4)cc3F)ccnc2cc1OCCCN1CCOCC1 [Foretinib] (partner 0.25 µM)
How it was run: (§1)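 Each reported value is a median over duplicate plates. It expresses relative viability: treated-well nuclei count divided by vehicle-well nuclei count. Lung cancer cell lines in 1536-well plates were dosed by pin tool a day after seeding, alone with one drug or with a fixed anchor-drug dose plus five library-drug doses (not always all listed) in √10 steps, and nuclei were counted after 5 days.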

[2] = compound: CC1=C(C=CC(=C1)[N+](=O)[O-])NS(=O)(=O)C2=C(C=CC(=C2)Cl)Cl [FH535] + Cc1nc(Nc2ncc(C(=O)Nc3c(C)cccc3Cl)s2)cc(N2CCN(CCO)CC2)n1 [Dasatinib] (partner 0.075 µM)
How it was run: as §1

[3] = compound: CC1=C(C=CC(=C1)[N+](=O)[O-])NS(=O)(=O)C2=C(C=CC(=C2)Cl)Cl [FH535] + Nc1ncn([C@H]2C[C@H](O)[C@@H](CO)O2)c(=O)n1 [Decitabine] (partner 2 µM)
How it was run: as §1

[4] = compound: CC1=C(C=CC(=C1)[N+](=O)[O-])NS(=O)(=O)C2=C(C=CC(=C2)Cl)Cl [FH535] + CC1(C)CCC(c2ccc(Cl)cc2)=C(CN2CCN(c3ccc(C(=O)NS(=O)(=O)c4ccc(N[C@H](CCN5CCOCC5)CSc5ccccc5)c(S(=O)(=O)C(F)(F)F)c4)cc3)CC2)C1 [Navitoclax] (partner 0.5 µM)
How it was run: as §1

[5] = compound: CC1=C(C=CC(=C1)[N+](=O)[O-])NS(=O)(=O)C2=C(C=CC(=C2)Cl)Cl [FH535] + O=C(c1cc(Cc2n[nH]c(=O)c3ccccc23)ccc1F)N1CCN(C(=O)C2CC2)CC1 [Olaparib] (partner 8 µM)
How it was run: as §1

Row | Cell Line | relative viability ([1]; first compound 0.04 µM) | relative viability ([1]; first compound 0.1265 µM) | relative viability ([1]; first compound 0.4 µM) | relative viability ([1]; first compound 1.265 µM) | relative viability ([2]; first compound 0.04 µM) | relative viability ([2]; first compound 0.1265 µM) | relative viability ([2]; first compound 0.4 µM) | relative viability ([2]; first compound 1.265 µM) | relative viability ([3]; first compound 0.04 µM) | relative viability ([3]; first compound 0.1265 µM) | relative viability ([3]; first compound 0.4 µM) | relative viability ([3]; first compound 1.265 µM) | relative viability ([4]; first compound 0.04 µM) | relative viability ([4]; first compound 0.1265 µM) | relative viability ([4]; first compound 0.4 µM) | relative viability ([4]; first compound 1.265 µM) | relative viability ([5]; first compound 0.04 µM) | relative viability ([5]; first compound 0.1265 µM) | relative viability ([5]; first compound 0.4 µM) | relative viability ([5]; first compound 1.265 µM)
1 | A-427 | 1.06 | 0.965 | 1.04 | 0.977 | 0.54 | 0.826 | 0.657 | 0.564 | 0.545 | 0.593 | 0.549 | 0.576 | 0.968 | 0.928 | 0.839 | 0.865 | 0.799 | 0.774 | 0.731 | 0.513
2 | LXF-289 | 0.975 | 0.983 | 0.862 | 0.684 | 0.205 | 0.262 | 0.225 | 0.212 | 0.357 | 0.422 | 0.369 | 0.336 | 0.996 | 0.936 | 0.945 | 0.645 | 0.916 | 1.06 | 1.03 | 0.587
3 | NCI-H838 | 1.03 | 1.11 | 0.933 | 0.823 | 0.276 | 0.291 | 0.284 | 0.269 | 0.39 | 0.498 | 0.387 | 0.345 | 1.16 | 1.24 | 1.07 | 0.969 | 0.727 | 0.768 | 0.66 | 0.475
4 | NCI-H1437 | 1.27 | 1.21 | 0.924 | 0.425 | 0.372 | 0.405 | 0.184 | 0.109 | 0.526 | 0.554 | 0.488 | 0.344 | 1.07 | 1.06 | 0.867 | 0.461 | 0.608 | 0.575 | 0.491 | 0.336
5 | SK-LU-1 | 0.834 | 0.805 | 0.822 | 0.662 | 0.191 | 0.192 | 0.182 | 0.194 | 0.63 | 0.517 | 0.626 | 0.44 | 0.89 | 1.01 | 0.688 | 0.622 | 0.48 | 0.439 | 0.456 | 0.407
6 | EPLC-272H | 0.586 | 0.852 | 0.72 | 0.562 | 0.283 | 0.318 | 0.311 | 0.281 | 0.328 | 0.4 | 0.412 | 0.377 | 1.04 | 1.22 | 1.07 | 0.926 | 0.766 | 0.92 | 0.849 | 0.636
7 | SK-MES-1 | 0.918 | 1.05 | 0.963 | 0.814 | 0.407 | 0.47 | 0.343 | 0.292 | 0.356 | 0.347 | 0.429 | 0.386 | 1.16 | 1.22 | 1.12 | 0.929 | 0.729 | 0.756 | 0.6 | 0.497
8 | NCI-H647 | 1.14 | 1.22 | 1.13 | 1.14 | 0.183 | 0.193 | 0.129 | 0.152 | 0.311 | 0.362 | 0.364 | 0.334 | 1.06 | 1.2 | 1.1 | 0.919 | 0.586 | 0.528 | 0.467 | 0.509
9 | NCI-H441 | 0.959 | 0.97 | 1.08 | 0.801 | 0.436 | 0.518 | 0.527 | 0.472 | 0.221 | 0.263 | 0.265 | 0.252 | 0.669 | 0.773 | 0.502 | 0.365 | 0.516 | 0.501 | 0.459 | 0.439

From the supplement of paper PMC10307832
